Test results taken from patent US20110039812A1, “N-ALKYLCARBONYL-D-AMINO HYDROXYALKYL ESTER COMPOUNDS AND THEIR USE” (priority 2006, published 2011).

Experiments:
oral cavity = test: Oral cavity test of tablets placed in the back of the mouth; format: in vivo, human
Description: The NACHE were also tested in the oral cavity using these methods: a) placement of 2 mg of the crystalline chemical on the dorsal surface of the tongue, b) incorporation of 2 mg of NACHE into a rapidly-distintegrating tablet of 60 mg weight, and placement of the tablet on the caudal-dorsal surface of the tongue, c) placement of a 0.3 mL aliquot of a 5 mg/mL solution of a NACHE in a 50% ethanol-distilled water solution, and d) delivery of a 5 mg/mL solution of a NACHE in a 50% ethanol-distilled water solution into the oral cavity using a hand-activated mouth spray dispenser. The tests in the oral cavity were important because many cooling agents used in confectionery and comestibles have disagreeable tastes of bitterness, harshness or burning qualities that limit their utility in such items as candy, mints, mouthwashes, mouth fresheners, and cough syrups.
Tablets of CPS-154 were prepared. To weighed samples of about 200 mg of CPS-154 was added varying amounts of Ludipress® (BASF, Germany) to give CPS-154 concentrations of 2.5, 3. 5, 10 and 10% by wt. The two ingredients were then thoroughly mixed in a mortar and pestle. To this mixture when then added 5 to 7 mL of 10% ethanol −90% distilled water solution. Using an eye dropper or a pipette, fixed volumes of the solution was placed on wax paper and dried under a heat source. The tablets were then sized and weighed.
Using the above formulation methods, three doses of 1, 2 and 4 mg per application were examined. […] The onset effect was usually within 30 seconds of application. […] Also, the effects of menthol were short-lived, on the order 8 to 12 minutes, versus a 20 to 30 minute period or longer.

[1] = test system: dorsal surface of the tongue; conditions: average for 6 subjects, after 30 seconds; cited from earlier work
skin above the upper lip = test: Cooling sensation bioassay: ointment applied to skin above the upper lip; format: in vivo, human
Excerpt: A reliable place for topical application is the skin above the upper lip (above the vermilion border of the lips), on the philtrum, lateral to the philtrum until the nasolabial folds, and on the lower nostrils (subnasale). This part of the face is known to be densely innervated with cold receptors, second only to the surfaces of the eyeball and anogenitalia. A second location is on or below the malar eminence (cheekbone). The skin above the cheekbone is thicker than above the lips, and therefore has a higher threshold for activation. At both loci, tingling, cool and cold sensations in the skin may be experienced and rated for time of onset and intensity.
The intensity of the subjective skin sensation is rated as 0, 1, 2 or 3 with 0 as no change, 1 as slight coolness, cold, or tingling, 2 as clear-cut signal of coolness, cold, or tingling, and 3 as robust cooling or cold. The intervals for recording sensations are 5 to 10 minutes, until two successive zeroes are obtained. The results (shown in FIG. 1) are averaged values of 4 to 6 separate trials in the same individual. The data are plotted using SigmaPlot (Systat Software, Point Richmond Calif.) and a smoothing function with a negative eponential was used for analysis and statistical fit of the results. […]

cough [2] = test: Powder on the tongue of two cigar smokers with cough; format: in vivo, human
Excerpt: Two males, were inveterate cigar smokers consuming 3 to 5 cigars per day. They both had frequent bouts of dry, non-productive, hacking coughs. At night, there were episodes of insomnia characterized by difficulties in breathing, an oppressive pressure on the chest and throat, and subsequent awakening with sensations of choking. During the day, a frequent and persistent sensation was that of tickling, irritative feelings in the back of the throat that led to coughing.
In 10 trials per subject, 2 mg of 92% pure powder of CPS-154 was placed on the mid-portion of the tongue of these two subjects. Both subjects reported relief from the desire to cough within 1 minute after application. Sensations of robust coolness in the back of the throat was noted and lasted for 15 to 20 minutes. Applications of similar amounts of powdered sugar were not effective, but the placebo could be clearly distinguished from the active compound because of the absence of cooling sensations.

[3] = test system: asthmatic coughing attacks; test: Tablets as needed in a subject with asthma; format: in vivo, human
Excerpt: A person with a documented 31-year history of asthma attacks volunteered to test one of the compounds of Formula 1. They were extremely sensitive to agents such as tobacco smoke, dust, pollen, odors, down/woolen materials, house cleansing products, pets, and sudden change of air temperature and reacted with violent coughing, mucus secretions, wheezing, choking, and shortness of breath. At the time of this trial, they were taking these medications for their condition: theophylline, Allegra®, Advair®, Intal®, and Singulair®. They were given 20 tablets of CPS-154, synthesized as described in Example 3, and instructed to take one on an as-needed basis.

viral cough = test: Tablets as needed in a subject with viral cough; format: in vivo, human; conditions: 2.0 mg tablets as needed
Description: A person has severe allergies and also developed a cough after a cruise trip overseas. Upon visit to a physician, they were diagnosed with a “viral cough” and prescribed codeine in a syrup. They volunteered to try CPS-154 tablets and was supplied with 15 tablets stored in a flip top plastic box, each containing 2.0 mg of CPS-154, in a 4% wt/wt lactose matrix (Ludipress®). The subject was instructed to take one tablet on an as-needed basis, with a preferred interval of 3 to 4 hours between tablets.

cough [4] = test: Orally-disintegrating tablet in the back of the mouth, anti-tussive action; format: in vivo; conditions: 40 to 60 mg Ludipress tablet containing 1 to 5 mg
Excerpt: Especially favored in this invention is the formulation of the NACHE of Formula 1, into an orally-disintegrating tablet.

## CC1CCC(C(C)C)C(O)C1 (single isomer, unassigned; (-)) [Menthol, (−)-menthol, reference compound]
Oral cavity; tablets, 2 or 4 mg dose
  quality and site of cooling sensations: cooling primarily in the nasopharynx and less in the oral cavity
[1]
  Threshold (amount producing cooling sensations on the tongue), average: 0.25 µg

## CC(C)[C@@H]1CC[C@@H](C)C[C@H]1C(=O)N[C@H](C)C(=O)OCCCO [CPS-154, (R)-2-[((1R,2S,5R)-2-isopropyl-5-methyl-cyclohexanecarbonyl)-amino]-propionic acid 3-hydroxy-propyl ester]
Skin above the upper lip; Aquaphor ointment 0.5 and 1% wt/vol, 50 to 80 mg
  duration of action of cooling on the skin of the upper lip: more than 1 hour
Skin above the upper lip; ointment on upper lip skin
  potency / cooling activity on the skin of the upper lip (comparison, FIG. 1): comparable to its alkyl ester analog, CPS-369
Oral cavity; Ludipress tablets
  dissolution of tablets in the back of the mouth: dissolved within a matter of seconds
Oral cavity; tablets
  activity in the oral cavity, D-analog versus L-equivalent: clearly more active than the L-equivalent
Oral cavity; tablets, 2 or 4 mg dose
  onset of cooling effect after application: ≤ 30 s
  quality and site of cooling sensations: pleasant and robust cooling sensations on the tongue, extending down to the back of throat
Cough [2]; 2 mg of 92% pure powder on mid-portion of the tongue, 2 subjects
  time to relief from the desire to cough: ≤ 1 min
Cough [2]; after 8 applications, continued smoking of cigars
  time the desire to cough was removed: at least 3 days
[3]; continued use of tablets as needed
  recurrence of asthmatic coughing attacks: have not recurred with any severity for six months
[3]; one tablet, asthma subject
  side-effects: did not sense any build up of sputum or other side-effects
Viral cough
  effect on cough severity: less severe
Cough [4]
  anti-tussive action: robust anti-tussive action for several hours
